Experimental data as given in publication PMC7307922 (Journal of Medicinal Chemistry, 2020).
Structures can show the parent of a compound that is named as a salt. Where two headings read alike, the source gives them in different places.

Biological target: T1, hFFA3 (Homo sapiens, UniProt O14843)
T1 sequence (O14843 1-346): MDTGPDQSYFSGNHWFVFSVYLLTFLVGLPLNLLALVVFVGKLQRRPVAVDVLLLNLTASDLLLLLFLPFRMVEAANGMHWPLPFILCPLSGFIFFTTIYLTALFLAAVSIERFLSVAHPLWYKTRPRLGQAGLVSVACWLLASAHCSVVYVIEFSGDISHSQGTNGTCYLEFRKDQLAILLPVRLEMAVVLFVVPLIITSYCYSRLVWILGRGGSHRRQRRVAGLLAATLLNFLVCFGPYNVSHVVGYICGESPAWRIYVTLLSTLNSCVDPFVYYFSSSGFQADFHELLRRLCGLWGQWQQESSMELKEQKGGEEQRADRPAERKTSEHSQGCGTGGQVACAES
Assay: cell-based
Conditions: for Emax: HEK293, read-out: cAMP Emax; for cAMP pEC50: compound alone, mean of ≥3 independent experiments ± standard error; for PAM pEC50: cAMP assay in the presence of 1 μM propionate; for allosteric effect on propionate response: cAMP assay together with propionate (56: 30 μM compound; 62, 63: 1 μM propionate)
Procedure: The ligands were initially screened in a human FFA3-dependent [^35S]GTPγS binding assay as this assay reflects receptor-mediated activation of Gi/o proteins and is known to generally correlate well with ligand affinity.[30] Analogues of particular interest were tested further in a cAMP inhibition assay as this is an important downstream effect of Gi-activation. […] It is furthermore performed in whole cells, is more downstream, includes G protein signal amplification, and therefore better reflects a more natural ligand–receptor response.
HEK293 Flp-In T-Rex cells stably transfected with FFA3-eYFP receptors were incubated overnight with doxycycline to induce expression, then harvested, and cryopreserved. On the day of each experiment, cells were thawed and resuspended in stimulation buffer. Assays were carried out using a 384-well plate format with 3000 cells/well using the CisBio cAMP GS dynamic kit as per manufacturer’s protocol. Compounds were tested for the ability to inhibit 0.3 μM forskolin-induced cAMP production after co-incubation for 1 h. Reactions were measured using a PHERAstar FS plate reader (BMGLabtech, Aylesbury, UK).

[1] = read-out: EC50 (cAMP assay), hFFA3

## CC1=C(C(=O)Nc2ccccc2C)[C@@H](c2ccco2)C2=C(CCCC2=O)N1 [(S)-1]
  EC50: 2000 nM

## CCC1=C(C(=O)Nc2ccccc2C)C(c2ccco2)C2=C(CCCC2=O)N1 (stereo not drawn) [Compound 22, 2-Ethyl-4-(furan-2-yl)-5-oxo-N-(o-tolyl)-1,4,5,6,7,8-hexahydroquinoline-3-carboxamide]
  Emax: 95%
hFFA3
  cAMP pEC50: 5.47 ± 0.04

## Cc1ccccc1NC(=O)C1=C(c2ccccc2)NC2=C(C(=O)CCC2)C1c1ccco1 (stereo not drawn) [Compound 23, 4-(Furan-2-yl)-5-oxo-2-phenyl-N-(o-tolyl)-1,4,5,6,7,8-hexahydroquinoline-3-carboxamide]
hFFA3
  cAMP pEC50: completely inactive and nr^c

## CC1=C(C(=O)Nc2ccccc2C)C(CC(C)C)C(C(=O)c2ccccc2)=C(C)N1 (stereo not drawn) [Compound 25, 5-Benzoyl-4-isobutyl-2,6-dimethyl-N-(o-tolyl)-1,4-dihydropyridine-3-carboxamide]
  EC50: > 100000 nM
  PAM pEC50: nr^c
hFFA3
  cAMP pEC50: nr^c

## COC(=O)C1=C(C)NC(C)=C(C(=O)Nc2ccccc2C)C1CC(C)C (stereo not drawn) [Compound 26, Methyl 4-isobutyl-2,6-dimethyl-5-(o-tolylcarbamoyl)-1,4-dihydropyridine-3-carboxylate]
  EC50: > 100000 nM
  PAM pEC50: 6.16 ± 0.12
  allosteric effect on propionate response: PAM
hFFA3
  cAMP pEC50: nr^c

## CC1=C(C#N)C(CC(C)C)C(C(=O)Nc2ccccc2C)=C(C)N1 (stereo not drawn) [Compound 27, 5-Cyano-4-isobutyl-2,6-dimethyl-N-(o-tolyl)-1,4-dihydropyridine-3-carboxamide]
  PAM pEC50: 6.42 ± 0.09
hFFA3
  cAMP pEC50: 3.99 ± 0.01

## COC(=O)C1=C(C)NC2=C(C(=O)CCC2)C1CC(C)C (stereo not drawn) [Compound 28, Methyl 4-isobutyl-2-methyl-5-oxo-1,4,5,6,7,8-hexahydroquinoline-3-carboxylate]
  PAM pEC50: 6.21 ± 0.10
  allosteric effect on propionate response: PAM properties
hFFA3
  cAMP pEC50: inactive alone and nr^c

## CC1=C(C(=O)c2ccccc2)C(CC(C)C)C2=C(CCCC2=O)N1 (stereo not drawn) [Compound 29, 3-Benzoyl-4-isobutyl-2-methyl-4,6,7,8-tetrahydroquinolin-5(1H)-one]
  PAM pEC50: >4
  allosteric effect on propionate response: PAM properties
hFFA3
  cAMP pEC50: inactive alone and nr^c

## CCC(C)C1C(C(=O)Nc2ccccc2C)=C(C)NC2=C1C(=O)CCC2 (stereo not drawn) [Compound 30, 4-(sec-Butyl)-2-methyl-5-oxo-N-(o-tolyl)-1,4,5,6,7,8-hexahydroquinoline-3-carboxamide]
  Emax: 110%
  PAM pEC50: 6.30 ± 0.04
hFFA3
  cAMP pEC50: 5.00 ± 0.07

## CC1=C(C(=O)Nc2ccccc2C)C(C2CCCCC2)C2=C(CCCC2=O)N1 (stereo not drawn) [Compound 31, 4-Cyclohexyl-2-methyl-5-oxo-N-(o-tolyl)-1,4,5,6,7,8-hexahydroquinoline-3-carboxamide]
  Emax: 91%
hFFA3
  cAMP pEC50: 5.26 ± 0.10

## CC1=C(C(=O)Nc2ccccc2C)C(C2CCCC2)C2=C(CCCC2=O)N1 (stereo not drawn) [Compound 32, 4-Cyclopentyl-2-methyl-5-oxo-N-(o-tolyl)-1,4,5,6,7,8-hexahydroquinoline-3-carboxamide]
  Emax: 102%
Cyclopentyl relative to cyclohexyl (31)
  increase in potency: 20 fold
hFFA3
  cAMP pEC50: 6.54 ± 0.02
[1]
  EC50: 288 nM

## CC1=C(C(=O)Nc2ccccc2C)C(C2CC2)C2=C(CCCC2=O)N1 (stereo not drawn) [Compound 33, 4-Cyclopropyl-2-methyl-5-oxo-N-(o-tolyl)-1,4,5,6,7,8-hexahydroquinoline-3-carboxamide]
  Emax: 102%
hFFA3
  cAMP pEC50: 6.22 ± 0.10
[1]
  EC50: 600 nM

## CCC1C(C(=O)Nc2ccccc2C)=C(C)NC2=C1C(=O)CCC2 (stereo not drawn) [Compound 34, 4-Ethyl-2-methyl-5-oxo-N-(o-tolyl)-1,4,5,6,7,8-hexahydroquinoline-3-carboxamide]
  Emax: 106%
  PAM pEC50: 6.45 ± 0.16
hFFA3
  cAMP pEC50: 5.38 ± 0.13

## CCCCC1C(C(=O)Nc2ccccc2C)=C(C)NC2=C1C(=O)CCC2 (stereo not drawn) [Compound 36, 2-Methyl-5-oxo-4-butyl-N-(o-tolyl)-1,4,5,6,7,8-hexahydroquinoline-3-carboxamide]
  PAM pEC50: 6.58 ± 0.06
hFFA3
  cAMP pEC50: 5.86 ± 0.03

## CCCCCC1C(C(=O)Nc2ccccc2C)=C(C)NC2=C1C(=O)CCC2 (stereo not drawn) [Compound 37, 2-Methyl-5-oxo-4-pentyl-N-(o-tolyl)-1,4,5,6,7,8-hexahydroquinoline-3-carboxamide]
  PAM pEC50: 6.40 ± 0.10
hFFA3
  cAMP pEC50: 5.60 ± 0.17

## CC1=C(C(=O)Nc2ccccc2C)C(CCc2ccccc2)C2=C(CCCC2=O)N1 (stereo not drawn) [Compound 38, 2-Methyl-5-oxo-4-phenethyl-N-(o-tolyl)-1,4,5,6,7,8-hexahydroquinoline-3-carboxamide]
  EC50: > 10000 nM
  Emax: 97%
  PAM pEC50: 6.23 ± 0.03
hFFA3
  cAMP pEC50: 4.21 ± 0.27

## CC1=C(C(=O)Nc2ccccc2C)C(/C=C/c2ccccc2)C2=C(CCCC2=O)N1 (stereo not drawn) [Compound 39]
  EC50: > 10000 nM
  Emax: 113%
  PAM pEC50: 6.14 ± 0.07
hFFA3
  cAMP pEC50: 4.34 ± 0.18

## CC1=C(C(=O)Nc2cc(Cl)ccc2Cl)C(CCn2cccn2)C2=C(CCCC2=O)N1 (stereo not drawn) [Compound 40, 4-(2-(1H-Pyrazol-1-yl)ethyl)-N-(2,5-dichlorophenyl)-2-methyl-5-oxo-1,4,5,6,7,8-hexahydroquinoline-3-carboxamide]
  EC50: > 10000 nM
  Emax: 96%
hFFA3
  cAMP pEC50: 4.95 ± 0.08

## CC1=C(C(=O)Nc2ccccc2C)C(c2cccn2C)C2=C(CCCC2=O)N1 (stereo not drawn) [Compound 41, 2-Methyl-4-(1-methyl-1H-pyrrol-2-yl)-5-oxo-N-(o-tolyl)-1,4,5,6,7,8-hexahydroquinoline-3-carboxamide]
  Emax: 97%
hFFA3
  cAMP pEC50: 4.45 ± 0.09

## CC1=C(C(=O)Nc2ccccc2C)C(c2ccc(C)o2)C2=C(CCCC2=O)N1 (stereo not drawn) [Compound 42, 2-Methyl-4-(5-methylfuran-2-yl)-5-oxo-N-(o-tolyl)-1,4,5,6,7,8-hexahydroquinoline-3-carboxamide]
  Emax: 100%
hFFA3
  cAMP pEC50: 5.96 ± 0.03

## CC1=C(C(=O)Nc2ccccc2C)C(c2cc(C)cs2)C2=C(CCCC2=O)N1 (stereo not drawn) [Compound 43, 2-Methyl-4-(4-methylthiophen-2-yl)-5-oxo-N-(o-tolyl)-1,4,5,6,7,8-hexahydroquinoline-3-carboxamide]
  Emax: 102%
hFFA3
  cAMP pEC50: 5.86 ± 0.04

## CC1=C(C(=O)Nc2ccccc2C)C(c2ccc(Br)o2)C2=C(CCCC2=O)N1 (stereo not drawn) [Compound 44, 4-(5-Bromofuran-2-yl)-2-methyl-5-oxo-N-(o-tolyl)-1,4,5,6,7,8-hexahydroquinoline-3-carboxamide]
  Emax: 95%
hFFA3
  cAMP pEC50: 6.61 ± 0.02

## CC1=C(C(=O)Nc2ccccc2C)C(c2cc3ccccc3o2)C2=C(CCCC2=O)N1 (stereo not drawn) [Compound 45, 4-(Benzofuran-2-yl)-2-methyl-5-oxo-N-(o-tolyl)-1,4,5,6,7,8-hexahydroquinoline-3-carboxamide]
  Emax: 98%
hFFA3
  cAMP pEC50: 6.00 ± 0.02

## CC1=C(C(=O)Nc2ccccc2C)C(c2csc3ccccc23)C2=C(CCCC2=O)N1 (stereo not drawn) [Compound 46, 4-(Benzo[b]thiophen-3-yl)-2-methyl-5-oxo-N-(o-tolyl)-1,4,5,6,7,8-hexahydroquinoline-3-carboxamide]
  Emax: 95%
hFFA3
  cAMP pEC50: 5.11 ± 0.04

## CC1=C(C(=O)Nc2cc(Cl)ccc2Cl)C(CN)C2=C(CCCC2=O)N1 (stereo not drawn) [Compound 52, 4-(Aminomethyl)-N-(2,5-dichlorophenyl)-2-methyl-5-oxo-1,4,5,6,7,8-hexahydroquinoline-3-carboxamide Hydrochloride]
hFFA3
  cAMP pEC50: nr^d

## CC1=C(C(=O)Nc2cc(Cl)ccc2Cl)C(CC2CCNCC2)C2=C(CCCC2=O)N1 (stereo not drawn) [Compound 53, N-(2,5-Dichlorophenyl)-2-methyl-5-oxo-4-(piperidin-4-ylmethyl)-1,4,5,6,7,8-hexahydroquinoline-3-carboxamide Hydrochloride]
hFFA3
  cAMP pEC50: nr^d
